Results taken from paper PMC4245125, “Pharmacological and Behavioral Characterization of D-473, an Orally Active Triple Reuptake Inhibitor Targeting Dopamine, Serotonin and Norepinephrine Transporters” (PLoS ONE, 2014).
Several values for one entry are separate records, joined by “and”; a condition that tells them apart may be missing. Equal entries are not always repeated.

Experiments:
5HT7 = target: T1, 5HT7 (Homo sapiens, UniProt P34969); experiment: NIMH PDSP receptor binding, 5HT7; conditions: [3H]LSD, read-out: % Inhibition of Binding at 10 µM D-473
T1 construct: purchased NIMH PDSP
T1 sequence (P34969 whole entry): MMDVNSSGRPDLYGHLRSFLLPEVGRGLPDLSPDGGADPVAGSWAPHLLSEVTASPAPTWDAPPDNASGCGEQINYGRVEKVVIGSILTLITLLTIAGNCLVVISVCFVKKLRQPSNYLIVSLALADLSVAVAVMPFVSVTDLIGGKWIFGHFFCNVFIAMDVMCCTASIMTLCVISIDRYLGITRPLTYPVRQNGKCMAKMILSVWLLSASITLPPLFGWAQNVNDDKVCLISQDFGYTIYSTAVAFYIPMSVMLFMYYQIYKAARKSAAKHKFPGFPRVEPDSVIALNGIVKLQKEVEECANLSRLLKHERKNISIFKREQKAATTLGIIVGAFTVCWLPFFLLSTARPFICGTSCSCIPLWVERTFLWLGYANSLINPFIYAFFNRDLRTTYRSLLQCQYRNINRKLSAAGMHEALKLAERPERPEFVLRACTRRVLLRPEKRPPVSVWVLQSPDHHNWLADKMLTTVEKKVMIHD

Beta1 = target: T2, Beta1 (Homo sapiens, UniProt P08588); experiment: NIMH PDSP receptor binding, Beta1; conditions: [125I]Iodopindolol, read-out: % Inhibition of Binding at 10 µM D-473
T2 construct: purchased NIMH PDSP
T2 sequence (P08588 whole entry): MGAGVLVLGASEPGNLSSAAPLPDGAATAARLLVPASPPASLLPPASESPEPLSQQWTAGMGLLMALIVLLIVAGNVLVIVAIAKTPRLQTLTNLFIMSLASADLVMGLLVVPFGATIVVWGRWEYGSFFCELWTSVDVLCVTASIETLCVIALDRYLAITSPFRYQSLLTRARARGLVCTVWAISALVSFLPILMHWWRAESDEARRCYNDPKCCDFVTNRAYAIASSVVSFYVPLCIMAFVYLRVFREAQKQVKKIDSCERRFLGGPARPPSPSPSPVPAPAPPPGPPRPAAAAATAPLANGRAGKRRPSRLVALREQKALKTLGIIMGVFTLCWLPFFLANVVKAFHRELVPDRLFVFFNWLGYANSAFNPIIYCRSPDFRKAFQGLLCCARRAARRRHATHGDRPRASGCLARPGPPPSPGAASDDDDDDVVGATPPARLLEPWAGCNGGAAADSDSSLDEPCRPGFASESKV

hDAT = hDAT (Homo sapiens, UniProt Q01959); experiment: Inhibition of [3H]DA uptake by cloned human DAT in HEK293 cells; conditions: nM, HEK293 cells expressing hDAT, average±S.E.M., 3 to 10 determinations
hDAT, sequence (Q01959 whole entry): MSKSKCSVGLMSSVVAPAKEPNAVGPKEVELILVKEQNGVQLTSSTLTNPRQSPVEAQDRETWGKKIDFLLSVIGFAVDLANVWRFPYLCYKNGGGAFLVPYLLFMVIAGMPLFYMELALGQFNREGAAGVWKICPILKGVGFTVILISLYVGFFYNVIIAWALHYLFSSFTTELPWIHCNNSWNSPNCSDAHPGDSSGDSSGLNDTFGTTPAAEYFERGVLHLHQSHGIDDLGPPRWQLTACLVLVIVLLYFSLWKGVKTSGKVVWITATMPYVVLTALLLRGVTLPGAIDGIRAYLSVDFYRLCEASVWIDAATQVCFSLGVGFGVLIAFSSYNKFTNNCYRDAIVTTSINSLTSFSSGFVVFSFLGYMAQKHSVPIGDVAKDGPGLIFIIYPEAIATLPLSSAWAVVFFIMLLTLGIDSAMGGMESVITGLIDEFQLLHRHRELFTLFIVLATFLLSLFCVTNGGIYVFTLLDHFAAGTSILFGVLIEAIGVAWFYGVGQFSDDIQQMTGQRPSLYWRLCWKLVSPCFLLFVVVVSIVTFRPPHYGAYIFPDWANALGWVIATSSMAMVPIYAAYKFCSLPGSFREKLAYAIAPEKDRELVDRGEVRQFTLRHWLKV

Alpha2C = Alpha2C (Homo sapiens, UniProt P18825); experiment: NIMH PDSP receptor binding, Alpha2C; conditions: [3H]Clonidine
Alpha2C, sequence (P18825 whole entry): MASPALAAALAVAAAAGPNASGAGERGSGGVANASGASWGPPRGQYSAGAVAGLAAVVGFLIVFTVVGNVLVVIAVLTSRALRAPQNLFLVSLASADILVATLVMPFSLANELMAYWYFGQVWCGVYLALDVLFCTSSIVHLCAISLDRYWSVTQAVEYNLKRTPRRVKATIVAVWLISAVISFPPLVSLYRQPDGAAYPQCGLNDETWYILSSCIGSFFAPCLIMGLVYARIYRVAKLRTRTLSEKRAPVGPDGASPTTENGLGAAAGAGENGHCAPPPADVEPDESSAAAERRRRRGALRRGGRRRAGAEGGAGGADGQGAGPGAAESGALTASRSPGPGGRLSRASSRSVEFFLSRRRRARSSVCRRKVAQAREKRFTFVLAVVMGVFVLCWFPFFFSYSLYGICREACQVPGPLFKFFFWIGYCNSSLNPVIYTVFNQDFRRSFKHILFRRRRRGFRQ

Alpha1B = target: T3, Alpha1B (Homo sapiens, UniProt P35368); experiment: NIMH PDSP receptor binding, Alpha1B; conditions: [3H]Prazosin, read-out: % Inhibition of Binding at 10 µM D-473
T3 construct: purchased NIMH PDSP

5HT1b = target: T4, 5HT1b (Homo sapiens, UniProt P28222); experiment: NIMH PDSP receptor binding, 5HT1b; conditions: [3H]GR-125743, read-out: % Inhibition of Binding at 10 µM D-473
T4 construct: purchased NIMH PDSP
T4 sequence (P28222 whole entry): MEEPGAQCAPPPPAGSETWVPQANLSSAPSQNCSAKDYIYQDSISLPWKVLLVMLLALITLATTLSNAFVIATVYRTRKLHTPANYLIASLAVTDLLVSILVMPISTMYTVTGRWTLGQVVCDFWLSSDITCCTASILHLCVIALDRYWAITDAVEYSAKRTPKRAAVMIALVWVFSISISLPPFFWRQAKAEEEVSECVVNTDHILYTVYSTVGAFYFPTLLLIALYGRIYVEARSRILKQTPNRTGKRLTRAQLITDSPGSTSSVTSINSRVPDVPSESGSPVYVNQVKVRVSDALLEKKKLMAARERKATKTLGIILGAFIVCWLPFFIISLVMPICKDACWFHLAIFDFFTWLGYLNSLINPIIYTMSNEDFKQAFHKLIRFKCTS

µ-Opioid = target: T5, µ-Opioid (Homo sapiens, UniProt P35372); experiment: NIMH PDSP receptor binding, µ-Opioid; conditions: [3H]Diprenorphine, read-out: % Inhibition of Binding at 10 µM D-473
T5 construct: purchased NIMH PDSP

PBR = experiment: NIMH PDSP receptor binding, PBR
5HT2b = 5HT2b (Homo sapiens, UniProt P41595); experiment: NIMH PDSP receptor binding, 5HT2b; conditions: [3H]LSD
5HT2b, sequence (P41595 whole entry): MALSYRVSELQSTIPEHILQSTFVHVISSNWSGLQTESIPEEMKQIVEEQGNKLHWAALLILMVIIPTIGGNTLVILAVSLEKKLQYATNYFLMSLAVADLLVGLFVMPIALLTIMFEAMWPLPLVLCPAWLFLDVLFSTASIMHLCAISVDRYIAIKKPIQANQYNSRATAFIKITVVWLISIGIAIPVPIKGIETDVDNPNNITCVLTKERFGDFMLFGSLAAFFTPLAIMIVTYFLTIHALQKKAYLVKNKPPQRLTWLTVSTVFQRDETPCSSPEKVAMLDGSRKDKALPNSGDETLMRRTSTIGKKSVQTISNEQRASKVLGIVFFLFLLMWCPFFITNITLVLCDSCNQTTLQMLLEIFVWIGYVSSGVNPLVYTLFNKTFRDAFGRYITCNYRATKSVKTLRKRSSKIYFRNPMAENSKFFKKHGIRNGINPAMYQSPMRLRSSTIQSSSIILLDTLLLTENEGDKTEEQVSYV

M3 = target: T6, M3 (Homo sapiens, UniProt P20309); experiment: biochemical; conditions: read-out: % Inhibition of Binding at 10 µM D-473
T6 construct: purchased NIMH PDSP

5HT1d = target: T7, 5HT1d (Homo sapiens, UniProt P28221); experiment: NIMH PDSP receptor binding, 5HT1d; conditions: [3H]GR-125743, read-out: % Inhibition of Binding at 10 µM D-473
T7 construct: purchased NIMH PDSP
T7 sequence (P28221 whole entry): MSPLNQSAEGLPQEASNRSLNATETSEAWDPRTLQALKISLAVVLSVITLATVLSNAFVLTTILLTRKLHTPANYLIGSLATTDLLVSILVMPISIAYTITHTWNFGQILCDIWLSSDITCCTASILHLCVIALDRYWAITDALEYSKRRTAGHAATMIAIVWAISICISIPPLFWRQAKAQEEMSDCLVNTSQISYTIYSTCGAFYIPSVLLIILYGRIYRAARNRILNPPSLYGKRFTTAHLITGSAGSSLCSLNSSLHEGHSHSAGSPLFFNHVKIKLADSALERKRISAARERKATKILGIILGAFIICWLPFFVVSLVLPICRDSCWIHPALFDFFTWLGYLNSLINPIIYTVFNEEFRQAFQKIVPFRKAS

M4 = target: T8, M4 (Homo sapiens, UniProt P08173); experiment: biochemical; conditions: read-out: % Inhibition of Binding at 10 µM D-473
T8 construct: purchased NIMH PDSP

[1] = tested on: locomotor activity (horizontal activity); experiment: Locomotor activity in rats; type: in vivo; conditions: rat; 25 mg/kg oral; 2 h post administration; vs vehicle
Description: Sprague Dawley Rats were tested at 25 mg/kg oral dose of D-473 to monitor changes in any locomotor activity in acrylic Auto-Track/Opto-Varimex-4 System (Columbus Instrument; Columbus, Ohio). The purpose was to evaluate locomotor activity of the same doses of drug that were used in the forced swim test. Rats were acclimated in the test chambers for 1 h prior to oral administration of D-473. Locomotor activity of the drug was measured for a total of two hour post administration of the drug which corresponded to the time of measurement in the forced swimming experiment. GBR 12909 was studied as a control drug known to stimulate and was administered i.p. as in published studies; vehicle was orally administered.

Alpha1D = target: T9, Alpha1D (Homo sapiens, UniProt P25100); experiment: NIMH PDSP receptor binding, Alpha1D; conditions: [3H]Prazosin, read-out: % Inhibition of Binding at 10 µM D-473
T9 construct: purchased NIMH PDSP
T9 sequence (P25100 whole entry): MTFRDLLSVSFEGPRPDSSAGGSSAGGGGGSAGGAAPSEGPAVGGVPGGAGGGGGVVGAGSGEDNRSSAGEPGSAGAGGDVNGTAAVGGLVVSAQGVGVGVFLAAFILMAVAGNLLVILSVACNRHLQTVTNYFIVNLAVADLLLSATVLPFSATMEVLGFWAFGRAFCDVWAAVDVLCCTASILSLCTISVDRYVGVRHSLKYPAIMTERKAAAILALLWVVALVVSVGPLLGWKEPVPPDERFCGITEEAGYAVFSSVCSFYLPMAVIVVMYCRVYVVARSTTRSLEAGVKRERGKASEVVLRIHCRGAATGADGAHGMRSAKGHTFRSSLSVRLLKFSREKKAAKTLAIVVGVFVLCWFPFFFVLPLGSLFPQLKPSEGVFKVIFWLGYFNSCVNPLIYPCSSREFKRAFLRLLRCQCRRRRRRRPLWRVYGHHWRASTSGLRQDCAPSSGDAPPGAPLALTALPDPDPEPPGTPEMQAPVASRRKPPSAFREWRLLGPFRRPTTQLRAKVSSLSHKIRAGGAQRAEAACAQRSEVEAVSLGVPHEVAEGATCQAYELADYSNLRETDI

D5 = D5 (Homo sapiens, UniProt P21918); experiment: NIMH PDSP receptor binding, D5
D5, sequence (P21918 whole entry): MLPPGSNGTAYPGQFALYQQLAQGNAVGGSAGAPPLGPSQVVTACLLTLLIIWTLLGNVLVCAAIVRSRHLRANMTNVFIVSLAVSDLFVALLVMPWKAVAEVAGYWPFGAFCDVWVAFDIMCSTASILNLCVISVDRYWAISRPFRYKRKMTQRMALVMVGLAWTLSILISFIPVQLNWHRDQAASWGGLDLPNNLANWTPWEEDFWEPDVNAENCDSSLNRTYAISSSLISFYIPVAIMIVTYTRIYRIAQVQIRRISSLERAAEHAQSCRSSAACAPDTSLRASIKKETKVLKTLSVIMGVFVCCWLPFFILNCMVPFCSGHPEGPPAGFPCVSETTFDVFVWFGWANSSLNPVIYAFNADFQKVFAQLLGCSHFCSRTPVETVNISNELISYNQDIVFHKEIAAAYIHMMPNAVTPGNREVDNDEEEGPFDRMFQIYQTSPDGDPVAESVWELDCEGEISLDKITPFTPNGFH

hNET = hNET (Homo sapiens, UniProt P23975); experiment: Inhibition of [3H]DA uptake by cloned human NET in HEK293 cells
hNET, sequence (P23975 whole entry): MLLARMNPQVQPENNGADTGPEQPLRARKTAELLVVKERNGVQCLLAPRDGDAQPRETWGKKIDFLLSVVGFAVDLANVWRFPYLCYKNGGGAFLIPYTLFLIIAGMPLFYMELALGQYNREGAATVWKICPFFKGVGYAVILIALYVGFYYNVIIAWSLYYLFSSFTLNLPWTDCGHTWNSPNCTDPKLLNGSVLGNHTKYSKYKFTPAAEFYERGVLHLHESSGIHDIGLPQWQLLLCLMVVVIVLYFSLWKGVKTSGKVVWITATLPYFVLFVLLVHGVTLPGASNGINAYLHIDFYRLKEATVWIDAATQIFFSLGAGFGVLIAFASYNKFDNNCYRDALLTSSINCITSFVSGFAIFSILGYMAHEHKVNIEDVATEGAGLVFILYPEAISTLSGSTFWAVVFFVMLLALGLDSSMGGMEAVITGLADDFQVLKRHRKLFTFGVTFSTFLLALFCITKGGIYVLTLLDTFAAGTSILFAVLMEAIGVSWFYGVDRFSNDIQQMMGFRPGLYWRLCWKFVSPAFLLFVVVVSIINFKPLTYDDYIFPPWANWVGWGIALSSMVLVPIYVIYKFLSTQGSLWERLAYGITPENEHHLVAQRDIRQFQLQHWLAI

M2 = target: T10, M2 (Homo sapiens, UniProt P08172); experiment: biochemical; conditions: read-out: % Inhibition of Binding at 10 µM D-473
T10 construct: purchased NIMH PDSP

Alpha2A = target: T11, Alpha2A (Homo sapiens, UniProt P08913); experiment: NIMH PDSP receptor binding, Alpha2A; conditions: [3H]Clonidine, read-out: % Inhibition of Binding at 10 µM D-473
T11 construct: purchased NIMH PDSP

[2] = 10 µM, read-out: % Inhibition of Binding at 10 µM D-473
[3] = secondary assay, read-out: Ki for D-473

COc1ccc(CN[C@@H]2CO[C@H](C(c3ccc(F)cc3)c3ccc(F)cc3)C[C@H]2O)cc1 [Compound D-473, (2S,4R,5R)-2-(bis(4-fluorophenyl)methyl)-5-((4-methoxybenzyl)amino)tetrahydro-2H-pyran-4-ol]
inhibition at 10 µM (5HT7): 41.4%
inhibition at 10 µM (Beta1): 24.6%
Ki (hDAT): 70 nM and 70.4 nM
inhibition at 10 µM (Alpha2C; [2]): 61%
Ki (Alpha2C; [3]): > 10000 nM
inhibition at 10 µM (Alpha1B): 16.6%
inhibition at 10 µM (5HT1b): 14.2%
inhibition at 10 µM (µ-Opioid): 20.5%
% Inhibition of Binding at 10 µM D-473 (PBR): 8.4%
inhibition at 10 µM (5HT2b; [2]): 70.8%
Ki (5HT2b; [3]): 597 nM
inhibition at 10 µM (M3): 6.9%
inhibition at 10 µM (5HT1d): 39%
inhibition at 10 µM (M4): -16.7%
Locomotor activity (horizontal activity) [1]: statistically indistinguishable from vehicle
inhibition at 10 µM (Alpha1D): 41.8%
inhibition at 10 µM (D5; [3H]SCH 23390, 10 µM, read-out: % Inhibition of Binding at 10 µM D-473): 74.7%
Ki (D5; [3H]SCH 23390, secondary assay, read-out: Ki for D-473): 1570 nM
Ki (hNET; NET uptake, Ki, nM [3H]DA, HEK293 cells expressing hNET, average±S.E.M., 3 to 10 determinations): 39 nM and 39.7 nM
Activity at NET relative to DAT (hNET; hNET vs hDAT uptake inhibition): roughly two fold more potent
inhibition at 10 µM (M2): -9.5%
inhibition at 10 µM (Alpha2A): 14.5%
